Source: patent US20230094922A1, “METHODS OF THERAPEUTIC PROGNOSTICATION” (GENETIKAPLUS LTD., priority 2020, published 2023)

Tested on: iPSC-derived cortical neurons
Type: cell-based
Conditions: responders vs non-responders, 10 μM Bupropion

## CC(NC(C)(C)C)C(=O)c1cccc(Cl)c1 (stereo not drawn) [Bupropion, 3-Chloro-N-tert-butyl-β-keto-α-methylphenethylamin]
p<0.01
  logFC LGI1 expression: 0.9793
  logFC LRRC8B expression: 0.4223
  logFC MCM4 expression: 0.5295
  logFC MCUR1 expression: 0.2421
  logFC MDN1 expression: 0.4167
  logFC MEIOC expression: 0.7172
  logFC MGA expression: 0.3064
  logFC MGME1 expression: 0.4368
  logFC MZT1 expression: 0.4887
  logFC NFKBID expression: 0.4452
  logFC NOS2 expression: 1.462
  logFC NPY2R expression: 1.653
  logFC OSBPL11 expression: 0.3394
  logFC PAWR expression: 0.4771
  logFC PCGF5 expression: 0.6056
  logFC PHF6 expression: 0.4686
  logFC POU5F1B expression: 0.9729
  logFC PPAT expression: 0.4669
  logFC PRKDC expression: 0.3963
  logFC PTPN13 expression: 0.5645
  logFC RNGTT expression: 0.3114
  logFC S100A13 expression: 0.7404
  logFC SELENOI expression: 0.336
  logFC SFRP4 expression: 1.737
  logFC SIGLEC10 expression: 0.8067
  logFC SIKE1 expression: 0.3013
  logFC SIM1 expression: 2.052
  logFC SLC7A11 expression: 0.6075
  logFC SLC25A13 expression: 0.3285
  logFC SLC25A17 expression: 0.3611
  logFC SMG1 expression: 0.2796
  logFC SNRNP48 expression: 0.4371
  logFC SPIN4 expression: 0.4838
  logFC STK38L expression: 0.387
  logFC SYCP2L expression: 0.5973
  logFC TFAM expression: 0.4583
  logFC TIGAR expression: 0.4965
  logFC TNFRSF13C expression: 0.5218
  logFC TSGA10IP expression: 0.8595
  logFC TXNRD1 expression: 0.3112
  logFC USP37 expression: 0.2938
  logFC WNT8B expression: 1.79
  logFC WNT10B expression: 1.077
  logFC WWP1 expression: 0.3073
  logFC ZBTB24 expression: 0.4021
  logFC ZC3H13 expression: 0.2827
  logFC ZNF347 expression: 0.3648
  logFC ZWILCH expression: 0.4164
PValue NS
  logFC ACKR1: −1.506
  logFC ACVR2A: −0.6074
  logFC ADGRA1: −1.373
  logFC ADGRG1: −0.7037
  logFC AFAP1: −0.7585
  logFC ANKRD34A: −1.243
  logFC APBA1: −1.797
  logFC APC2: −1.57
  logFC APOL6: −1.252
  logFC ARHGAP22: −2.023
  logFC ASIC2: −1.907
  logFC ATL1: −1.284
  logFC ATP8A1: −1.064
  logFC BCL11A: −1.755
  logFC BTBD8: −0.8605
  logFC C1QL1: −1.952
  logFC C11orf87: −2.65
  logFC C11orf95: −0.652
  logFC C14orf132: −1.198
  logFC CACNA1E: −1.888
  logFC CALY: −1.348
  logFC CARMIL3: −1.181
  logFC CBFA2T3: −1.14
  logFC CDKN2D: −1.375
  logFC CEND1: −1.295
  logFC CHD5: −1.435
  logFC CHRNB4: −1.488
  logFC CHRNG: −1.545
  logFC CNR1: −1.187
  logFC CNTN2: −2.494
  logFC CRYGD: −3.453
  logFC CTIF: −0.9638
  logFC DACT3: −0.903
  logFC DCLK1: −1.159
  logFC DISP3: −1.132
  logFC DLGAP3: −1.159
  logFC DLL4: −2.038
  logFC DNAJC6: −1.057
  logFC DNAJC12: −0.9874
  logFC DNM3: −1.295
  logFC DOC2B: −2.034
  logFC DOK4: −0.8299
  logFC DPF3: −1.335
  logFC DPP6: −1.175
  logFC DUSP8: −1.12
  logFC DUSP26: −1.67
  logFC ELAVL2: −0.9184
  logFC ELAVL3: −1.463
  logFC ELMOD1: −1.395
  logFC EPHB2: −1.009
  logFC ERC2: −0.9757
  logFC ESRRB: −1.635
  logFC ESRRG: −1.003
  logFC FAM78B: −1.309
  logFC FAM131C: −1.177
  logFC FAM155A: −0.6581
  logFC FBLL1: −1.499
  logFC FBXL16: −0.9816
  logFC FLRT2: −0.9821
  logFC FRRS1L: −1.313
  logFC GALNT15: −1.592
  logFC GDAP1L1: −1.2
  logFC GDI1: −0.5928
  logFC GNAT3: −1.874
  logFC GNAZ: −0.8379
  logFC GNG2: −1.148
  logFC GPR12: −2.094
  logFC GPR83: −1.576
  logFC GPRASP1: −0.7562
  logFC GPRIN3: −1.516
  logFC GRIN2B: −2.921
  logFC GRIN3A: −2.57
  logFC GRM6: −1.37
  logFC GRM7: −1.699
  logFC GSE1: −0.6973
  logFC GSTM3: −1.177
  logFC HIVEP3: −1.261
  logFC HPCAL4: −1.489
  logFC INSYN1: −1.208
  logFC INSYN2A: −1.914
  logFC IQSEC3: −1.513
  logFC JAKMIP3: −0.927
  logFC KIDINS220: −0.8542
  logFC KIF1A: −1.165
  logFC KIF21B: −1.336
  logFC KLF7: −0.8775
  logFC L1CAM: −1.21
  logFC LANCL2: −0.7582
  logFC LBH: −0.8003
  logFC MACO1: −0.6324
  logFC MADD: −0.7392
  logFC MAGEE1: −0.8404
  logFC MANEAL: −1.302
  logFC MAOA: −1.531
  logFC MAP3K10: −0.7965
  logFC MAPK8IP1: −1.32
  logFC MAPT: −1.894
  logFC MCF2L: −1.13
  logFC MDGA1: −1.126
  logFC MLLT11: −1.039
  logFC MSANTD1: −1.341
  logFC MTMR4: −0.6785
  logFC MVB12B: −1.106
  logFC MYH3: −3.064
  logFC MYH6: −3.72
  logFC MYT1: −1.297
  logFC MYT1L: −2.032
  logFC NAPB: −1.05
  logFC NCAN: −1.327
  logFC NCS1: −1.056
  logFC NDP: −2.196
  logFC NEFL: −0.8556
  logFC NKAIN2: −1.212
  logFC NOL4L: −0.7376
  logFC NRN1: −0.9586
  logFC NRXN2: −1.352
  logFC NTRK1: −1.53
  logFC NTS: −1.335
  logFC NXPH1: −2.191
  logFC OLFM1: −1.154
  logFC OSBP2: −1.125
  logFC PCDHA5: −1.076
  logFC PCDHA7: −1.111
  logFC PCDHB13: −1.168
  logFC PCDHB15: −1.085
  logFC PCDHGA4: −1.156
  logFC PCDHGA6: −1.871
  logFC PCSK2: −1.936
  logFC PEG3: −3.912
  logFC PEX5L: −1.625
  logFC PHACTR1: −1.247
  logFC PIP4K2B: −0.6164
  logFC PLCL1: −1.271
  logFC PLPPR4: −2.082
  logFC PLPPR5: −1.467
  logFC PLXNA4: −1.432
  logFC PNMA6A: −1.328
  logFC PODXL2: −0.8136
  logFC PRKAR1B: −1.374
  logFC PTGFR: −2.027
  logFC PTPRT: −1.789
  logFC QPCT: −1.04
  logFC RALYL: −2.285
  logFC RGN: −1.436
  logFC RIMS3: −1.119
  logFC ROBO2: −1.394
  logFC RPS6KL1: −1.019
  logFC RTN2: −0.9099
  logFC RTN4: −0.6753
  logFC RUNDC3A: −1.678
  logFC RUSC2: −0.9937
  logFC SBK1: −0.9487
  logFC SCAMP5: −0.8113
  logFC SCRT1: −1.427
  logFC SEPTIN4: −1.513
  logFC SGIP1: −1.239
  logFC SH3GL2: −1.666
  logFC SHC2: −0.6933
  logFC SHC4: −2.453
  logFC SHISA7: −1.011
  logFC SLC1A4: −1.383
  logFC SLC4A3: −1.275
  logFC SLC6A17: −2.434
  logFC SLC24A3: −1.458
  logFC SLC30A10: −1.88
  logFC SLIT1: −1.122
  logFC SLITRK3: −2.443
  logFC SMIM18: −1.721
  logFC SMIM22: −1.921
  logFC SNAP25: −1.475
  logFC SNN: −0.6591
  logFC SOBP: −0.9125
  logFC SOGA3: −1.2
  logFC SOX4: −0.6592
  logFC SPOCK2: −2.032
  logFC SPRN: −1.245
  logFC SRL: −1.711
  logFC STMN3: −1.145
  logFC SYT3: −1.332
  logFC SYT4: −1.54
  logFC SYT5: −1.94
  logFC SYT11: −0.7686
  logFC TACR1: −1.666
  logFC TAFA2: −1.304
  logFC TBC1D30: −1.541
  logFC TCEAL6: −2.546
  logFC TMCC2: −0.92
  logFC TMEM35A: −1.274
  logFC TMEM179: −1.494
  logFC TMEM229B: −1.955
  logFC TMOD2: −1.477
  logFC TNR: −2.583
  logFC TRIM67: −1.894
  logFC UBE2QL1: −1.575
  logFC UNC13A: −0.9018
  logFC VAMP2: −0.7327
  logFC VSTM2L: −1.008
  logFC VWC2: −2.201
  logFC XKR4: −1.301
  logFC XKR7: −1.252
  logFC ZNF436: −0.8527
  logFC ZNF836: −0.9494
